Source: PubChem BioAssay (NCI)
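These data come from cells grown in 96-well plates and exposed to compound for 48 hours at five concentrations. GI50 marks 50% less growth. TGI: concentration producing complete growth inhibition.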

tested on: SK-MEL-5 melanoma; assay: NCI-60 cell line screen, 48 h

Going from NCCCCN(CCCN)/[N+]([O-])=N\O to CCOC(=O)c1c(C)n(Cc2ccc(Cl)cc2Cl)c2c1c(CN(C)C)c(O)c1[nH]cnc12, the TGI falls from over 100 µM to 30.9 µM.

CCOc1ccccc1NC(=O)CC(C(=O)OC)C(=O)C(=O)OC (stereo unspecified) and COC(=O)C1=C(C)N(NC(=O)OC(C)(C)C)C(=O)C1=P(c1ccccc1)(c1ccccc1)c1ccccc1 cannot be ordered by TGI: over 100 µM for the first, over 100 µM for the second.

C[C@@]12CC=C3c4nc(Nc5cccc(O)c5)sc4CC[C@]3(C)[C@H]1CC[C@]1(C)C(=O)CC[C@@H]21 and CN1C(=O)c2cccc3cc([N+](=O)[O-])cc(c23)C1=O cannot be ordered by TGI: over 100 µM for the first, over 10 µM for the second.

O=C1OC(c2ccccc2)=N/C1=C\c1cccc2ccccc12 and c1ccc(CNn2nnc3ccccc32)cc1 cannot be ordered by TGI: over 100 µM for the first, over 100 µM for the second.

Compared with Cc1cccc(NC(=O)/C(=N\NC(C)(C)C)C2NC(=S)NC2=O)c1C (stereo unspecified), CN1c2ccc(Cl)cc2C(=O)NC1c1ccc([N+](=O)[O-])s1 (stereo unspecified) is lower in TGI: over 100 µM for the first, 31.6 µM for the second.

C[C@@H]1CC(=O)C2CCCC1C2=O (stereo partly specified) and Oc1cccnc1CN1CCCCC1 cannot be ordered by TGI: over 100 µM for the first, over 100 µM for the second.

Compared with CCOC(=O)c1c(C)n(Cc2ccc(Cl)cc2Cl)c2c1c(CN(C)C)c(O)c1[nH]cnc12, C[C@@]12CC=C3c4nc(Nc5cccc(O)c5)sc4CC[C@]3(C)[C@H]1CC[C@]1(C)C(=O)CC[C@@H]21 is 3-fold lower in GI50: 17.2 µM for the first, 5.7 µM for the second.

tested on: CCRF-CEM leukemia; assay: NCI-60 cell line screen, 48 h

Cc1nc(N)sc1C(=O)/C=C\c1ccc2c(c1)OCO2 and Cc1cc(C(=O)Nc2ncc(Cc3cccc(C(F)(F)F)c3)s2)c2ccccc2n1 cannot be ordered by TGI: over 100 µM for the first, over 100 µM for the second.

COc1cc(C(C)O)c[n+](CCc2c[nH]c3ccccc23)c1 (stereo unspecified) and COc1ccccc1CCc1cc(OC)c(OC)c(OC)c1 cannot be ordered by TGI: over 100 µM for the first, over 100 µM for the second.

Going from CN1CCN(CCCOc2ccc3nc(Nc4ccc(Cl)c(C(F)(F)F)c4)ccc3c2)CC1 to COc1ccc(C(=O)C(C(=O)CCC(=O)Nc2cccc(Cl)c2)c2ccc(OC)cc2)cc1 (stereo unspecified), the TGI rises from 22.1 µM to over 100 µM.

CC1(C)SCc2nc3ncccc3n21 and N#CCN1C(=O)c2cccc3cc([N+](=O)[O-])cc(c23)C1=O cannot be ordered by TGI: over 100 µM for the first, over 100 µM for the second.

Cc1cn(C2CC(O)C(CO)O2)c(=O)n2nnnc12 (stereo unspecified) and OC[C@H]1CCCC1O (stereo partly specified) cannot be ordered by TGI: over 100 µM for the first, over 100 µM for the second.

CCOC(=O)C1=C(C)N(NC(=O)Nc2ccccc2)C(=O)C1=P(c1ccccc1)(c1ccccc1)c1ccccc1 and Cc1cccc(NC(=O)C(=O)C(C(=O)c2ccc3ccccc3c2)C2OC(=O)c3ccccc32)c1C (stereo unspecified) are within 1.5-fold of each other in TGI: 96.7 µM for the first, 68.8 µM for the second.

COc1cc(C=C2C(=O)NC(=O)NC2=O)cc(OC)c1OC and COc1cc2c(cc1OC)C(CC(=O)NN=C(C)C)NCC2 (stereo unspecified) cannot be ordered by TGI: over 100 µM for the first, over 100 µM for the second.

Going from Nn1c(=O)n(Cc2ccccc2)n(-c2ccccc2)c1=O to C=C1C(=O)O[C@H]2[C@H]1CC/C(COC(=O)C(=O)c1cn(Cc3ccccc3)c3ccccc13)=C\CC[C@@]1(C)O[C@@H]21, the TGI falls from over 100 µM to 9.02 µM.

Cc1ccc(C2=C(c3ccccc3)C(Br)(c3ccc(C)cc3)C(c3ccccc3)=C2c2ccc(C)cc2)cc1 and CC(C)C(Nc1c2ccccc2nc2ccccc12)C(=O)O (stereo unspecified) cannot be ordered by TGI: over 100 µM for the first, over 100 µM for the second.

O=C1CCN2C(=O)CCN12 and O=C1OC(C(O)CO)C(=O)C1=O (stereo unspecified) cannot be ordered by TGI: over 100 µM for the first, over 10000 µM for the second.

CC1CC[C@]2(C(=O)O)CCC3(C)C(=CC(=O)C4[C@@]5(C)CCC(=O)C(C)(C)C5CC[C@]43C)[C@@H]2[C@H]1C (stereo partly specified) and CC1(C)C(=O)N(CCCCCCN2C(=O)C(C)(C)c3ccccc32)c2ccccc21 are within 1.5-fold of each other in TGI: 58.9 µM for the first, 47.5 µM for the second.

COC(C(O)CO)C(O)C(O)C(=O)NNc1ccccc1 (stereo unspecified) and CS/C(N)=N\NC(=O)CCC(=O)Nc1ccccc1C(F)(F)F cannot be ordered by TGI: over 100 µM for the first, over 100 µM for the second.

CC(C)(C)c1ccc2c(c1)S(=O)(=O)Nc1ccccc1NS(=O)(=O)c1cc(C(C)(C)C)ccc1OCCOCCOCCO2 and NC(N)=N/N=C(\c1nc2ccc([N+](=O)[O-])cc2[nH]c1=O)C(O)c1ccc([N+](=O)[O-])cc1 (stereo unspecified) cannot be ordered by TGI: over 100 µM for the first, over 100 µM for the second.

Compared with CC(=O)[O-].CCN(CC)c1ccc(C=NCCN=Cc2ccc(N(CC)CC)cc2[O-])c([O-])c1.[Mn+3], COc1cc2nc3cc([N+](=O)[O-])ccc3c(NCCCNCCO)c2cc1OC is lower in TGI: over 100 µM for the first, 1.41 µM for the second.

Compared with CCC[CH2][Sn]1([CH2]CCC)[O]CC(CN2CCCC2)[O]1 (stereo unspecified), NCCCCN(CCCN)/[N+]([O-])=N\O is higher in TGI: 21.3 µM for the first, over 100 µM for the second.

Going from CN1CCN(CCCOc2ccc3nc(Nc4ccc(Cl)c(C(F)(F)F)c4)ccc3c2)CC1 to Cc1cc(C(=O)Nc2ncc(Cc3cccc(C(F)(F)F)c3)s2)c2ccccc2n1, the GI50 falls from 6 µM to 2.54 µM (2.4-fold).

Compared with O=C1OC(C(O)CO)C(=O)C1=O (stereo unspecified), C=C1C(=O)O[C@H]2[C@H]1CC/C(COC(=O)C(=O)c1cn(Cc3ccccc3)c3ccccc13)=C\CC[C@@]1(C)O[C@@H]21 is 2300-fold lower in GI50: 2940 µM for the first, 1.27 µM for the second.

Going from CC(=O)[O-].CCN(CC)c1ccc(C=NCCN=Cc2ccc(N(CC)CC)cc2[O-])c([O-])c1.[Mn+3] to COc1cc2nc3cc([N+](=O)[O-])ccc3c(NCCCNCCO)c2cc1OC, the GI50 falls from 42 µM to 0.211 µM (200-fold).

CCC[CH2][Sn]1([CH2]CCC)[O]CC(CN2CCCC2)[O]1 (stereo unspecified) showed a GI50 of 3.33 µM.
